Molecules are shown by their SMILES.

The values that follow come from patent publication US20240368135A1 (VERTEX PHARMACEUTICALS INCORPORATED, priority 2021, published 2024).

Chain of human NaV 1.8 (Q9Y5Y9 126-399 limits assumed): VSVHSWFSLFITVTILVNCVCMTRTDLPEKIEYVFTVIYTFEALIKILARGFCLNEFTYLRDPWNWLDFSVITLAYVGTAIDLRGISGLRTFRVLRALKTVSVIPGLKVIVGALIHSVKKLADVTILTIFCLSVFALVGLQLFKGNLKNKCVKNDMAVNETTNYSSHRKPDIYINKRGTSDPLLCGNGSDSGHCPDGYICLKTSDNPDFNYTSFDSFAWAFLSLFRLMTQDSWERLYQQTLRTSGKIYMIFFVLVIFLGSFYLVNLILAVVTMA
Chain of human NaV 1.8 (Q9Y5Y9 660-890 limits assumed): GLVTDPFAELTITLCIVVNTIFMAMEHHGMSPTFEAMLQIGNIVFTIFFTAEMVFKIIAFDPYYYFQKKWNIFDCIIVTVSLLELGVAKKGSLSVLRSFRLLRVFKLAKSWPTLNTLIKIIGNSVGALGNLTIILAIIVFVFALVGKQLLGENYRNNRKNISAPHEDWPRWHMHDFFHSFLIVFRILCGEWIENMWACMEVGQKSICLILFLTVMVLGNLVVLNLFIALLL
Chain of human NaV 1.8 (Q9Y5Y9 1148-1722 limits assumed): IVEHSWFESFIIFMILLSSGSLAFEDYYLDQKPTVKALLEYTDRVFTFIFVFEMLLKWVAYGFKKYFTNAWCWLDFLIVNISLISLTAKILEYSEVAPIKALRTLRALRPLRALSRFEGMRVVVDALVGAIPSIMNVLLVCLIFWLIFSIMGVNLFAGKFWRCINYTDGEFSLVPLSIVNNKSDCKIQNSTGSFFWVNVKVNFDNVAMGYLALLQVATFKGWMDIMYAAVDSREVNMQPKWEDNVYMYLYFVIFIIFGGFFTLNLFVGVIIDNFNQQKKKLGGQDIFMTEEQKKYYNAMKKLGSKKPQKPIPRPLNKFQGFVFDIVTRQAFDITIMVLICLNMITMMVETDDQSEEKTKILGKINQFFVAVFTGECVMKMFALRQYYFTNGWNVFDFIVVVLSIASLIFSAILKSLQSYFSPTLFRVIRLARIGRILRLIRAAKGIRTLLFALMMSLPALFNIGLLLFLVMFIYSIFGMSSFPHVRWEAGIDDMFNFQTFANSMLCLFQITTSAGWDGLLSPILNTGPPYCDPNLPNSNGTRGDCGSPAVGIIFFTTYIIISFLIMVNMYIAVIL

The target of one assay is human NaV 1.8 (Homo sapiens, UniProt Q9Y5Y9). The assay can be described thus: E-VIPR assay detecting and measuring NaV inhibition properties. It is filed as cell-based. As to conditions: HEK cells expressing truncated human NaV 1.8; in the presence of human serum (compound numbers followed by *); read-out: IC50 in the E-VIPR Assay, performed in the presence of human serum. The method in brief:
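Membrane potential was followed by coumarin/oxonol FRET during electrical field stimulation of matrigel-seeded HEK cells carrying truncated human NaV1.8 plus KIR2.1. Dosing used 11 points, 3-fold steps, top 300 nM final, 0.625% DMSO, with or without 25% human serum.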
`COc1c(C2C(C(=O)Nc3ccnc(S(C)(=O)=O)c3)OC(C)(C(F)(F)F)C2C)ccc(F)c1F` (single isomer, unassigned) [Compound 49, 3-(3,4-difluoro-2-methoxy-phenyl)-4,5-dimethyl-N-(2-methylsulfonyl-4-pyridyl)-5-(trifluoromethyl)tetrahydrofuran-2-carboxamide]: the IC50 is at least 1000 nM.
Still for that read-out and setting: to `C[C@H]1[C@@H](c2ccc(F)c(F)c2OC(F)F)[C@H](C(=O)Nc2cccnc2)O[C@@]1(C)C(F)(F)F` (single isomer, unassigned) [Compound 65] belongs 10 to 100 nM.

Staying with this assay, now noted: HEK cells expressing truncated human NaV 1.8; no human serum; read-out: IC50 in the E-VIPR Assay.
On to `C[C@@H]1[C@H](c2ccc(F)c(F)c2OC(F)F)[C@@H](C(=O)Nc2ccc(C(N)=O)cc2)O[C@]1(C)C(F)(F)F` (stereo in doubt) [Compound 73, rel-(2S,3R,4R,5S)-N-(4-carbamoylphenyl)-3-(2-(difluoromethoxy)-3,4-difluorophenyl)-4,5-dimethyl-5-(trifluoromethyl)tetrahydrofuran-2-carboxamide], for which the IC50 was at least 1000 nM.
As to `COc1c([C@H]2[C@H](C(=O)Nc3cc(C(O)CO)ncc3F)O[C@@](C)(C(F)(F)F)[C@H]2C)ccc(F)c1F` (single isomer, unassigned) [Compound 199, rel-(2R*,3S*,4S*,5R*)-3-(3,4-difluoro-2-methoxyphenyl)-N-(2-(-1,2-dihydroxyethyl)-5-fluoropyridin-4-yl)-4,5-dimethyl-5-(trifluoromethyl)tetrahydrofuran-2-carboxamide], the IC50 was under 10 nM.
On the same count and under the same terms, in the case of `CC(C)Oc1c([C@H]2[C@H](C(=O)Nc3ccnc(S(C)(=N)=O)c3)O[C@@](C)(C(F)(F)F)[C@H]2C)ccc(F)c1F` (single isomer, unassigned) [Compound 119] it was under 10 nM.
Consider `C[C@H]1[C@@H](c2ccc(F)c(F)c2OC(F)F)[C@H](C(=O)Nc2ccnc(C(O)CO)c2)O[C@@]1(C)C(F)(F)F` (single isomer, unassigned) [Compound 82], for which the IC50 is under 10 nM.
For `COc1c([C@H]2[C@H](C(=O)Nc3cnc(C(N)=O)nc3)O[C@@](C)(C(F)(F)F)[C@H]2C)ccc(F)c1C(F)F` (stereo in doubt) [Compound 173, rel-5-((2R,3S,4S,5R)-3-(3-(difluoromethyl)-4-fluoro-2-methoxyphenyl)-4,5-dimethyl-5-(trifluoromethyl)tetrahydrofuran-2-carboxamido)pyrimidine-2-carboxamide], the IC50 is under 10 nM.
Consider `COc1c([C@H]2[C@H](C(=O)Nc3ccc(C[C@@H](O)CO)nc3)O[C@@](C)(C(F)(F)F)[C@H]2C)ccc(F)c1F` [Compound 334, (2R,3S,4S,5R)-3-(3,4-difluoro-2-methoxy-phenyl)-N-[6-[(2R)-2,3-dihydroxypropyl]-3-pyridyl]-4,5-dimethyl-5-(trifluoromethyl)tetrahydrofuran-2-carboxamide], for which the IC50 fell in the range of 10 to 100 nM.
Take `Cc1nn(C)cc1NC(=O)[C@@H]1O[C@@](C)(C(F)(F)F)[C@@H](C)[C@H]1c1ccc(F)c(F)c1OCCO` [Compound 557, (2R,3S,4S,5R)-3-(3,4-difluoro-2-(2-hydroxyethoxy)phenyl)-N-(1,3-dimethyl-1H-pyrazol-4-yl)-4,5-dimethyl-5-(trifluoromethyl)tetrahydrofuran-2-carboxamide]: the IC50 lay within 10 to 100 nM.
Same read-out and setting: in the case of `CN=S(C)(=O)c1cc(NC(=O)C2OC(C)(C(F)(F)F)C(C)C2c2ccc(F)c(F)c2OC)ccn1` (single isomer, unassigned) [Compound 529, 3-(3,4-difluoro-2-methoxy-phenyl)-N-[2-(N,S-dimethylsulfonimidoyl)-4-pyridyl]-4,5-dimethyl-5-(trifluoromethyl)tetrahydrofuran-2-carboxamide] it was 100 to 1000 nM; in that of `COCC(C)(C)N(C)Cc1cc(NC(=O)[C@@H]2O[C@@](C)(C(F)(F)F)[C@@H](C)[C@H]2c2ccc(F)c(F)c2OC)ccn1` [Compound 15], 10 to 100 nM; in that of `C[C@@H]1[C@H](c2ccc(F)c(F)c2OC(F)F)[C@@H](C(=O)Nc2ccn(C)c(=O)c2)O[C@]1(C)C(F)(F)F` (single isomer, unassigned) [Compound 77], at least 1000 nM.
In the case of `COc1c([C@H]2[C@H](C(=O)Nc3ccnc(NC(=O)CN(C)C)c3)O[C@@](C)(C(F)(F)F)[C@H]2C)ccc(F)c1F` [Compound 472, (2R,3S,4S,5R)-3-(3,4-difluoro-2-methoxyphenyl)-N-(2-(2-(dimethylamino)acetamido)pyridin-4-yl)-4,5-dimethyl-5-(trifluoromethyl)tetrahydrofuran-2-carboxamide], the IC50 was in the range of 10 to 100 nM.
The same measure, in the same setting: in the case of `CNC(COC)c1cc(NC(=O)[C@@H]2O[C@@](C)(C(F)(F)F)[C@@H](C)[C@H]2c2ccc(F)c(F)c2OC)c(F)cn1` (single isomer, unassigned) [Compound 418, rel-(2R*,3S*,4S*,5R*)-3-(3,4-difluoro-2-methoxyphenyl)-N-(5-fluoro-2-(2-methoxy-1-(methylamino)ethyl)-pyridin-4-yl)-4,5-dimethyl-5-(trifluoromethyl)-tetrahydrofuran-2-carboxamide] it was under 10 nM.
On the same count and under the same terms, in the case of `COc1c(C2C(C(=O)Nc3ccnc(C(O)C(C)O)c3)OC(C)(C(F)(F)F)C2C)ccc(F)c1C` (single isomer, unassigned) [Compound 144] it was under 10 nM; in that of `COc1c([C@H]2[C@H](C(=O)Nc3ccnc(N(C)CCO)c3)O[C@@](C)(C(F)(F)F)[C@H]2C)ccc(F)c1F` [Compound 521, (2R,3S,4S,5R)-3-(3,4-difluoro-2-methoxy-phenyl)-N-[2-[2-hydroxyethyl(methyl)amino]-4-pyridyl]-4,5-dimethyl-5-(trifluoromethyl)tetrahydrofuran-2-carboxamide], 10 to 100 nM; in that of `COCC(N)c1cc(NC(=O)[C@@H]2O[C@@](C)(C(F)(F)F)[C@@H](C)[C@H]2c2ccc(F)c(F)c2OC)c(F)cn1` (single isomer, unassigned) [Compound 423, rel-(2R*,3S*,4S*,5R*)-N-(2-(1-amino-2-methoxyethyl)-5-fluoropyridin-4-yl)-3-(3,4-difluoro-2-methoxyphenyl)-4,5-dimethyl-5-(trifluoromethyl)-tetrahydrofuran-2-carboxamide], under 10 nM.
Same read-out and setting: in the case of `COc1c(C2C(C(=O)Nc3cc[n+]([O-])c(C(O)CO)c3)OC(C)(C(F)(F)F)C2C)ccc(F)c1F` (centres unmarked) [Compound 210, 3-(3,4-difluoro-2-methoxy-phenyl)-N-[2-(1,2-dihydroxyethyl)-1-oxido-pyridin-1-ium-4-yl]-4,5-dimethyl-5-(trifluoromethyl)tetrahydrofuran-2-carboxamide] it was 10 to 100 nM; in that of `COc1c([C@H]2[C@H](C(=O)Nc3cc(C4CN(C)CCO4)ncc3F)O[C@@](C)(C(F)(F)F)[C@H]2C)ccc(F)c1F` (single isomer, unassigned) [Compound 367, rel-(2R*,3S*,4S*,5R*)-3-(3,4-difluoro-2-methoxyphenyl)-N-(5-fluoro-2-(4-methylmorpholin-2-yl)pyridin-4-yl)-4,5-dimethyl-5-(trifluoromethyl)tetrahydrofuran-2-carboxamide], 10 to 100 nM.
Regarding `COc1cc(NC(=O)[C@@H]2O[C@@](C)(C(F)(F)F)[C@@H](C)[C@H]2c2ccc(F)c(F)c2OCCO)ccn1` [Compound 544, (2R,3S,4S,5R)-3-(3,4-difluoro-2-(2-hydroxyethoxy)phenyl)-N-(2-methoxypyridin-4-yl)-4,5-dimethyl-5-(trifluoromethyl)tetrahydrofuran-2-carboxamide], the IC50 was 10 to 100 nM.
`C[C@@H]1[C@H](c2ccc(F)c(F)c2OC(F)F)[C@@H](C(=O)Nc2ccc(CC(C)(C)O)nc2)O[C@]1(C)C(F)(F)F` (single isomer, unassigned) [Compound 461]: the IC50 is at least 1000 nM.
Same read-out and setting: to `C[C@H]1[C@@H](c2ccc(F)c(F)c2OC(F)F)[C@H](C(=O)Nc2cc(S(C)(=O)=O)ccn2)O[C@@]1(C)C(F)(F)F` (single isomer, unassigned) [Compound 72] belongs 10 to 100 nM.
Same read-out and setting: to `[2H]C([2H])([2H])Oc1c([C@H]2[C@H](C(=O)Nc3ccnc(N4CCNCC4=O)c3)O[C@@](C)(C(F)(F)F)[C@H]2C)ccc(F)c1F` [Compound 515, (2R,3S,4S,5R)-3-[3,4-difluoro-2-(trideuteriomethoxy)phenyl]-4,5-dimethyl-N-[2-(2-oxopiperazin-1-yl)-4-pyridyl]-5-(trifluoromethyl)tetrahydrofuran-2-carboxamide] belongs 10 to 100 nM; to `[2H]C([2H])([2H])Oc1c([C@H]2[C@H](C(=O)Nc3ccnc(N4CCN(C)CC4=O)c3)O[C@@](C)(C(F)(F)F)[C@H]2C)ccc(F)c1F` [Compound 518, (2R,3S,4S,5R)-3-(3,4-difluoro-2-(methoxy-d3)phenyl)-4,5-dimethyl-N-(2-(4-methyl-2-oxopiperazin-1-yl)pyridin-4-yl)-5-(trifluoromethyl)tetrahydrofuran-2-carboxamide], under 10 nM; to `COc1c([C@H]2[C@H](C(=O)Nc3cc(C4(N)CCOC4)ncc3F)O[C@@](C)(C(F)(F)F)[C@H]2C)ccc(F)c1F` (single isomer, unassigned) [Compound 348, rel-(2R*,3S*,4S*,5R*)-N-(2-(3-aminotetrahydrofuran-3-yl)-5-fluoropyridin-4-yl)-3-(3,4-difluoro-2-methoxyphenyl)-4,5-dimethyl-5-(trifluoromethyl)-tetrahydrofuran-2-carboxamide], 10 to 100 nM.
On to `CNC1CCN(c2cc(NC(=O)[C@@H]3O[C@@](C)(C(F)(F)F)[C@@H](C)[C@H]3c3ccc(F)c(F)c3OC)ccn2)C1=O` (single isomer, unassigned) [Compound 501, rel-(2R*,3S*,4S*,5R*)-3-(3,4-difluoro-2-methoxyphenyl)-4,5-dimethyl-N-(2-(3-(methylamino)-2-oxopyrrolidin-1-yl)pyridin-4-yl)-5-(trifluoromethyl)tetrahydrofuran-2-carboxamide], for which the IC50 lay within 10 to 100 nM.

As usually defined, the IC50 is the point on the concentration scale where inhibition reaches its midpoint.
